Patent US10052320B2, “Substituted quinoxalines as FGFR kinase inhibitors” (ASTEX THERAPEUTICS LIMITED, priority 2011, dated 2018)

Experiments:
[1] = biological target: T1, Ba/F3-Flt3-transfected cells (Homo sapiens, UniProt P36888, cells depend on it, form not given); experiment: Ba/F3-Flt3 (minus IL3) cellular proliferation assay, Alamar Blue; assay type: cell-based
T1 sequence (P36888 1-993): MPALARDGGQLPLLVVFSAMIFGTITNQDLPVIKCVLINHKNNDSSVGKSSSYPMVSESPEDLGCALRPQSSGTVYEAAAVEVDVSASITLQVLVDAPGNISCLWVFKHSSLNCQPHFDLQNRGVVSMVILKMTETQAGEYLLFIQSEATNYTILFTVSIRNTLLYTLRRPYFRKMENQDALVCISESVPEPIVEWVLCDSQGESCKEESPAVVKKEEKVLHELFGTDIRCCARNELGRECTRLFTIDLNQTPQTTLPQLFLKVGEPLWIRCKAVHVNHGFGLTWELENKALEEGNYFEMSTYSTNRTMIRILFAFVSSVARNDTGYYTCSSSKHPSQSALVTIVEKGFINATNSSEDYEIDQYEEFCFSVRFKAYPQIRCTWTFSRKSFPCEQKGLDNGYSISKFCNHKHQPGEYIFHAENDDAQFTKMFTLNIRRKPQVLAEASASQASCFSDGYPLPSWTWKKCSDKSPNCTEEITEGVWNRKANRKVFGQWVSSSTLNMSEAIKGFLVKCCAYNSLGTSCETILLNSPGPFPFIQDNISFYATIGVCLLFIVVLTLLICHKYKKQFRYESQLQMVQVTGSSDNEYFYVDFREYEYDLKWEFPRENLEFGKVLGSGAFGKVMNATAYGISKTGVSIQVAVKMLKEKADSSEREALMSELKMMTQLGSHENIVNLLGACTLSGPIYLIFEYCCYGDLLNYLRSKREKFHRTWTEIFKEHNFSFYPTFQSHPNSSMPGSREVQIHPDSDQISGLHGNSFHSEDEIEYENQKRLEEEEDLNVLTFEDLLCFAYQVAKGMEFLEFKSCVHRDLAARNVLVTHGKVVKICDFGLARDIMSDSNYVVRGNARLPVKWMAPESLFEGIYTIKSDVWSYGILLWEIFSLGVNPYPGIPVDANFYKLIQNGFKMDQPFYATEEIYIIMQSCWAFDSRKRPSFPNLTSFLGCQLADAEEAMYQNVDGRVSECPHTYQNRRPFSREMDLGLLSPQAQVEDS
Method: Ba/F3-Flt3 (Minus IL3 or Plus IL3) (Cellular Proliferation Assay)
Cells were put in an incubator at 37° C. and 5% CO2. After 24 hours, 10 μl of Alamar Blue solution (0.5 mM K3Fe(CN)6, 0.5 mM KaFe(CN)6, 0.15 mM Resazurin and 100 mM Phosphate Buffer) was added to the wells, incubated for 4 hours at 37° C. and 5% CO2 before RFU's (Relative Fluorescence Units) (ex. 540 nm., em. 590 nm.) were measured in a flurorescence plate reader. […]
In a 96 well plate, 180 μl cell culture medium (phenol red free RPMI-1640, 10% FBS, 2 mM L-Glutamine and 50 μg/ml Gentamycin) containing 10000 cells per well of Ba/F3-Flt3-transfected cells were pipette and 20 μl of compound dilution in DMSO was added. Cells were put in an incubator at 37° C. and 5% CO2. After 24 hours, 40 μl of Alamar Blue solution (0.5 mM K3Fe(CN)6, 0.5 mM KaFe(CN)6, 0.15 mM Resazurin and 100 mM Phosphate Buffer) was added to the wells, incubated for 4 hours at 37° C. and 5% CO2 before RFU's (Relative Fluorescence Units) (ex. 540 nm., em. 590 nm.) were measured in a flurorescence plate reader.

FGFR1 (h) = FGFR1 (h) (Homo sapiens, UniProt P11362); experiment: FGFR1 (enzymatic assay), TR-FRET; assay type: biochemical; conditions: read-out: FGFR 1 pIC50 (converted)
Method: In a final reaction volume of 30 μL, FGFR1 (h) (25 ng/ml) was incubated with 50 mM HEPES pH 7.5, 6 mM MnCl2, 1 mM DTT, 0.1 mM Na3VO4, 0.01% Triton-X-100, 500 nM Btn-Flt3 and 5 μM ATP in the presence of compound (1% DMSO final). […] Time-Resolved Fluorescence Resonance Energy Transfer (TR-FRET) signal (ex340 nm. Em 620 nm, em 655 nm) was measured afterwards and results are expressed in RFU (Relative Fluorescence Units).

KDR (h) (VEGFR2) = KDR (h) (VEGFR2) (Homo sapiens, UniProt P35968); experiment: KDR (VEGFR2) (enzymatic assay), TR-FRET; assay type: biochemical
Method: KDR (VEGFR2) (Enzymatic Assay)
In a final reaction volume of 30 μL, KDR (h) (150 ng/ml) was incubated with 50 mM HEPES pH 7.5, 6 mM MnCl2, 1 mM DTT, 0.1 mM Na3VO4, 0.01% Triton-X-100, 500 nM Btn-Flt3 and 3 μM ATP in the presence of compound (1% DMSO final). After incubation for 120 minutes at room temperature the reaction was stopped with 2.27 nM EU-anti P-Tyr, 7 mM EDTA, 31.25 nM SA-XL-665 and 0.02% BSA which was present for 60 minutes at room temperature. Time-Resolved Fluorescence Resonance Energy Transfer (TR-FRET) signal (ex340 nm. Em 620 nm, em 655 nm) was measured afterwards and results are expressed in RFU (Relative Fluorescence Units).

KDR (h) (VEGFR2), sequence (P35968 20-1356): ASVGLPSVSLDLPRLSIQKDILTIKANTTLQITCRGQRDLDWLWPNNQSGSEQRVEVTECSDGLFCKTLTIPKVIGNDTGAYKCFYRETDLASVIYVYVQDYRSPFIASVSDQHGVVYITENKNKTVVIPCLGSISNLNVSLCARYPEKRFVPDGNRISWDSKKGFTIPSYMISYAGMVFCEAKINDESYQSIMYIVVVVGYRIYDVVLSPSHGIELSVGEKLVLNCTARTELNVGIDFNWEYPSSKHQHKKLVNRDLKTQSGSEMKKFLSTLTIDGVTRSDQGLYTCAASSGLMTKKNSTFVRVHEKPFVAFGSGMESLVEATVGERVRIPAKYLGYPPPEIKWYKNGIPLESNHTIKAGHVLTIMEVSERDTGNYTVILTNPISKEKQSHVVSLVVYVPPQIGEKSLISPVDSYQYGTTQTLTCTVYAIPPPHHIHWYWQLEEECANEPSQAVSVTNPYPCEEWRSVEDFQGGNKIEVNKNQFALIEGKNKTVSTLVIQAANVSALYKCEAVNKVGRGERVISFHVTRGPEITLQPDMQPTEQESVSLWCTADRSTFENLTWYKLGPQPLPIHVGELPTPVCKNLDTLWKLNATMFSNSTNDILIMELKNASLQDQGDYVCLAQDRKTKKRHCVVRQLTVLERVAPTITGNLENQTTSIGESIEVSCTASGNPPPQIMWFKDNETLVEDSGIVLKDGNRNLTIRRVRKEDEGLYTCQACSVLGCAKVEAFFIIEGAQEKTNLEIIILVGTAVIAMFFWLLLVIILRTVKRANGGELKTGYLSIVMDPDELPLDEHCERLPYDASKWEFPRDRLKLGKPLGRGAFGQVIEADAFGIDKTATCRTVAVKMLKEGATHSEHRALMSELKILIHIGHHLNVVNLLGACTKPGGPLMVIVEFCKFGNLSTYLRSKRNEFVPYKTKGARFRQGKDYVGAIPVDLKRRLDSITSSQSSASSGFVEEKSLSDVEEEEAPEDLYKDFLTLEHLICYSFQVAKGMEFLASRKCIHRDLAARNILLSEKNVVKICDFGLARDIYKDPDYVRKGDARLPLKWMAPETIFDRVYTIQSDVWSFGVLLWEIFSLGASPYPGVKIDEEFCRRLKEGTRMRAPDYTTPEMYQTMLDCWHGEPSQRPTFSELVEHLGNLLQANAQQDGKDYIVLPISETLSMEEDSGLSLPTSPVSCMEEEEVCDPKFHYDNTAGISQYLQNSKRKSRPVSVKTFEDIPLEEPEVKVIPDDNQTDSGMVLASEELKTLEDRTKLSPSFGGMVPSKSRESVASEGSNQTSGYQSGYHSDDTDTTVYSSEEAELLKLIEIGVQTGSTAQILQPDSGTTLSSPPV
FGFR1 (h), sequence (P11362 22-822): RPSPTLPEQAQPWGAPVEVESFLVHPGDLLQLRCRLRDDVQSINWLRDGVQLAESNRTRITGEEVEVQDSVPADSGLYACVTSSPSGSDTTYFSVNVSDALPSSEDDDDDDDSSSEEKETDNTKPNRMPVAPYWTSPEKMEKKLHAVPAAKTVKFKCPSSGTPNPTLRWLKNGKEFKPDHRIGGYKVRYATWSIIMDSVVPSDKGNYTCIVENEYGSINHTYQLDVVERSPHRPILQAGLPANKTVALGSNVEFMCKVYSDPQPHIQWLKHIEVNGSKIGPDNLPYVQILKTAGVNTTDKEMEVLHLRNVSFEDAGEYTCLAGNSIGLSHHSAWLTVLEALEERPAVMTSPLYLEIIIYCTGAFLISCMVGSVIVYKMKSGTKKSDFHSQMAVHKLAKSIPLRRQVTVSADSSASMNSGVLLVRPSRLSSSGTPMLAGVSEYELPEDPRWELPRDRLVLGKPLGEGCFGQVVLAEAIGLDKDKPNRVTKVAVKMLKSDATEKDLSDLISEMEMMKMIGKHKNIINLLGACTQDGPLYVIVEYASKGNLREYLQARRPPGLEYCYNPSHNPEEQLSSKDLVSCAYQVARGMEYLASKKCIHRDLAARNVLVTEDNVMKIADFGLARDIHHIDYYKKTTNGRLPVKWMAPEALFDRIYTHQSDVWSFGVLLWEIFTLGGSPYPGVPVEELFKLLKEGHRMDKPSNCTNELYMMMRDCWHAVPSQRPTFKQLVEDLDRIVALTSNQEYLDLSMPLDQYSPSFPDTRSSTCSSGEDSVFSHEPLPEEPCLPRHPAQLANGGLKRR

## COCC(CN(c1cc(OC)cc(OC)c1)c1ccc2ncc(-c3cccnc3)nc2c1)OC(C)=O (single isomer, unassigned) [Compound 52]
[1]; minus IL3
  BAF3-FLT3 (MIN IL3) 384 well pIC50: <5
FGFR1 (h)
  IC50: 87.1 nM
KDR (h) (VEGFR2)
  IC50: > 1000 nM

## COc1cc(OC)cc(N(CC#Cc2ncccn2)c2ccc3ncc(-c4cccnc4)nc3c2)c1 [Compound 2]
[1]; minus IL3
  BAF3-FLT3 (MIN IL3) 384 well pIC50: <5
FGFR1 (h)
  IC50: 83.2 nM
KDR (h) (VEGFR2)
  IC50: > 1000 nM

## COc1cc(OC)cc(N(CCCNCC(F)(F)F)c2ccc3ncc(-c4ccn(C)c4)nc3c2)c1 [Compound 5]
[1]; minus IL3
  BAF3-FLT3 (MIN IL3) 384 well pIC50: <5
FGFR1 (h)
  IC50: 6.92 nM
KDR (h) (VEGFR2)
  IC50: 126 nM

## COc1cc(OC)cc(N(CCO)c2ccc3ncc(-c4ccc(N5CCOCC5)nc4)nc3c2)c1 [Compound 19]
[1]; minus IL3
  BAF3-FLT3 (MIN IL3) 384 well pIC50: <5
FGFR1 (h)
  IC50: 3.89 nM
KDR (h) (VEGFR2)
  IC50: 170 nM

## COc1cc(OC)cc(N(CC2CC2)c2ccc3ncc(C#Cc4cncn4C)nc3c2)c1 [Compound 22]
[1]; minus IL3, 96 well
  BAF3-FLT3 (MIN IL3) 96 well pIC50: <5
[1]; minus IL3, 384 well
  BAF3-FLT3 (MIN IL3) 384 well pIC50: <5
FGFR1 (h)
  IC50: 28.2 nM
KDR (h) (VEGFR2)
  IC50: 1660 nM

## COc1cc(OC)cc(N(CC2CC2)c2ccc3ncc(C(=O)Nc4cncn4C)nc3c2)c1 [Compound 27]
[1]; minus IL3
  BAF3-FLT3 (MIN IL3) 96 well pIC50: <5
  BAF3-FLT3 (MIN IL3) 384 well pIC50: <5
FGFR1 (h)
  IC50: 269 nM
KDR (h) (VEGFR2)
  IC50: > 10000 nM

## COc1cc(OC)cc(N(CC2CC2)c2ccc3ncc(-c4ccnc(N5CCN(C)CC5)c4)nc3c2)c1 [Compound 37]
[1]; minus IL3, 96 well
  BAF3-FLT3 (MIN IL3) 96 well pIC50: 5.59
[1]; minus IL3, 384 well
  BAF3-FLT3 (MIN IL3) 384 well pIC50: 5.05
FGFR1 (h)
  IC50: 30.2 nM
KDR (h) (VEGFR2)
  IC50: 1380 nM

## COc1cc(OC)cc(N(CCO)c2ccc3ncc(-n4cnc(CO)c4)nc3c2)c1 [Compound 38]
[1]; minus IL3
  BAF3-FLT3 (MIN IL3) 384 well pIC50: <5
FGFR1 (h)
  IC50: 15.1 nM
KDR (h) (VEGFR2)
  IC50: 708 nM

## COc1cc(OC)cc(N(CCCO)c2ccc3ncc(-c4ccnc(C(=O)N5CCOCC5)c4)nc3c2)c1 [Compound 43]
[1]; minus IL3
  BAF3-FLT3 (MIN IL3) 384 well pIC50: <5
FGFR1 (h)
  IC50: 15.8 nM
KDR (h) (VEGFR2)
  IC50: 245 nM

## COc1cc(OC)cc(N(CCCNCC(=O)O)c2ccc3ncc(-c4ccnc(C(=O)NCCCCN)c4)nc3c2)c1 [Compound 44]
[1]; minus IL3
  BAF3-FLT3 (MIN IL3) 384 well pIC50: <5
FGFR1 (h)
  IC50: 17.4 nM
KDR (h) (VEGFR2)
  IC50: 302 nM

## COc1cc(OC)cc(N(CC2CC2)c2ccc3ncc(N4CCN(CCO)CC4)nc3c2)c1 [Compound 49]
[1]; minus IL3
  BAF3-FLT3 (MIN IL3) 96 well pIC50: 5.2
  BAF3-FLT3 (MIN IL3) 384 well pIC50: <5
FGFR1 (h)
  IC50: 316 nM
KDR (h) (VEGFR2)
  IC50: 3980 nM

## COc1cc(OC)cc(N(CCN2CCNCC2)c2ccc3ncc(-c4ccc(N)nc4)nc3c2)c1 [Compound 59]
[1]; minus IL3
  BAF3-FLT3 (MIN IL3) 384 well pIC50: 5.28
FGFR1 (h)
  IC50: 3.63 nM
KDR (h) (VEGFR2)
  IC50: 45.7 nM

## COc1cc(OC)cc(N(CC2CC2)c2ccc3ncc(N4CCN(C)CC4)nc3c2)c1 [Compound 64]
[1]; minus IL3, 96 well
  BAF3-FLT3 (MIN IL3) 96 well pIC50: ~5.12
[1]; minus IL3, 384 well
  BAF3-FLT3 (MIN IL3) 384 well pIC50: <5
FGFR1 (h)
  IC50: 437 nM
KDR (h) (VEGFR2)
  IC50: 5500 nM

## COc1cc(OC)cc(N(CCO)c2ccc3ncc(N4CCC(CN)CC4)nc3c2)c1 [Compound 84]
[1]; minus IL3
  BAF3-FLT3 (MIN IL3) 384 well pIC50: <5
FGFR1 (h)
  IC50: 44.7 nM
KDR (h) (VEGFR2)
  IC50: > 1000 nM

## COc1cc(OC)cc(N(CC2CC2)c2ccc3ncc(-c4nnc(C)o4)nc3c2)c1 [Compound 85]
[1]; minus IL3, 96 well
  BAF3-FLT3 (MIN IL3) 96 well pIC50: <5
[1]; minus IL3, 384 well
  BAF3-FLT3 (MIN IL3) 384 well pIC50: <5
FGFR1 (h)
  IC50: 302 nM
KDR (h) (VEGFR2)
  IC50: 8320 nM

## COc1cc(OC)cc(N(CC2CC2)c2ccc3ncc(-c4ccc5[nH]ccc5c4)nc3c2)c1 [Compound 86]
[1]; minus IL3, 96 well
  BAF3-FLT3 (MIN IL3) 96 well pIC50: <5
[1]; minus IL3, 384 well
  BAF3-FLT3 (MIN IL3) 384 well pIC50: <5
FGFR1 (h)
  IC50: 513 nM
KDR (h) (VEGFR2)
  IC50: > 10000 nM

## COc1cc(OC)cc(N(CC2CC2)c2ccc3ncc(-c4ccc5c(c4)OCO5)nc3c2)c1 [Compound 87]
[1]; minus IL3, 384 well
  BAF3-FLT3 (MIN IL3) 384 well pIC50: <5.4
FGFR1 (h)
  IC50: 617 nM
KDR (h) (VEGFR2)
  IC50: > 10000 nM

## COc1cc(OC)cc(N(CC2CC2)c2ccc3ncc(-c4cnc5[nH]ccc5c4)nc3c2)c1 [Compound 88]
[1]; minus IL3, 96 well
  BAF3-FLT3 (MIN IL3) 96 well pIC50: <5
[1]; minus IL3, 384 well
  BAF3-FLT3 (MIN IL3) 384 well pIC50: <5
FGFR1 (h)
  IC50: 575 nM
KDR (h) (VEGFR2)
  IC50: > 10000 nM

## COc1cc(OC)cc(N(CC2CC2)c2ccc3ncc(-c4ccnc(N5CCOCC5)c4)nc3c2)c1 [Compound 90]
[1]; minus IL3, 96 well
  BAF3-FLT3 (MIN IL3) 96 well pIC50: <5
FGFR1 (h)
  IC50: 589 nM
KDR (h) (VEGFR2)
  IC50: > 10000 nM

## COc1cc(OC)cc(N(CC2CC2)c2ccc3ncc(-c4cccc(N5CCOCC5)c4)nc3c2)c1 [Compound 92]
[1]; minus IL3
  BAF3-FLT3 (MIN IL3) 96 well pIC50: <5
  BAF3-FLT3 (MIN IL3) 384 well pIC50: <5
FGFR1 (h)
  IC50: 363 nM
KDR (h) (VEGFR2)
  IC50: 1950 nM

## COc1cc(OC)cc(N(CC2CC2)c2ccc3ncc(C(=O)N4CCC4)nc3c2)c1 [Compound 93]
[1]; minus IL3
  BAF3-FLT3 (MIN IL3) 96 well pIC50: <5
  BAF3-FLT3 (MIN IL3) 384 well pIC50: <5
FGFR1 (h)
  IC50: > 10000 nM
KDR (h) (VEGFR2)
  IC50: > 10000 nM

## COc1cc(OC)cc(N(CC2CC2)c2ccc3ncc(-n4cccn4)nc3c2)c1 [Compound 95]
[1]; minus IL3
  BAF3-FLT3 (MIN IL3) 96 well pIC50: <5
  BAF3-FLT3 (MIN IL3) 384 well pIC50: <5
FGFR1 (h)
  IC50: 1320 nM
KDR (h) (VEGFR2)
  IC50: > 10000 nM

## COc1cc(OC)cc(N(CCCO)c2ccc3ncc(-c4ccnc(C(=O)NCCCCCN)c4)nc3c2)c1 [Compound 130]
[1]; minus IL3
  BAF3-FLT3 (MIN IL3) 384 well pIC50: <5
FGFR1 (h)
  IC50: 17.4 nM
KDR (h) (VEGFR2)
  IC50: 550 nM

## COc1cc(OC)cc(N(CCCNC(C)C)c2ccc3ncc(-c4ccnc(NC(=O)NC(C)C)c4)nc3c2)c1 [Compound 131]
[1]; minus IL3
  BAF3-FLT3 (MIN IL3) 384 well pIC50: 5.5
FGFR1 (h)
  IC50: 2.09 nM
KDR (h) (VEGFR2)
  IC50: 200 nM

## COc1cc(OC)cc(N(CCCO)c2ccc3ncc(-c4ccnc(Cl)c4)nc3c2)c1 [Compound 136]
FGFR1 (h)
  IC50: 24 nM
KDR (h) (VEGFR2)
  IC50: 776 nM
